How the values were obtained:
[1] = test system: DENV-2 16681 strain; assay: DENV-2 antiviral assay (eGFP fluorescence, Vero cells); assay type: cell-based, Dengue virus; conditions: DENV-2 16681 eGFP, MOI 0.5, 3 days
Experimental: The antiviral activity of all the compounds of the invention was tested against the DENV-2 16681 strain which was labeled with enhanced green fluorescent protein (eGPF). The culture medium consists of minimal essential medium supplemented with 2% of heat-inactivated fetal calf serum, 0.04% gentamycin (50 mg/mL) and 2 mM of L-glutamine. Vero cells, obtained from ECACC, were suspended in culture medium and 25 μL was added to 384-well plates (2500 cells/well), which already contain the antiviral compounds. Typically, these plates contain a 5-fold serial dilution of 9 dilution steps of the test compound at 200 times the final concentration in 100% DMSO (200 nL). […] Finally, each plate contains wells which are assigned as virus controls (containing cells and virus in the absence of compound), cell controls (containing cells in the absence of virus and compound) and medium controls (containing medium in the absence of cells, virus and compounds). To the wells assigned as medium control, 25 μL of culture medium was added instead of Vero cells. Once the cells were added to the plates, the plates were incubated for 30 minutes at room temperature to allow the cells to distribute evenly within the wells. Next, the plates were incubated in a fully humidified incubator (37° C., 5% CO2) until the next day. Then, DENV-2 strain 16681, labeled with eGFP, was added at a multiplicity of infection (MOI) of 0.5. Therefore, 15 μL of virus suspension was added to all the wells containing test compound and to the wells assigned as virus control. In parallel, 15 μL of culture medium was added to the medium and cell controls. Next, the plates were incubated for 3 days in a fully humidified incubator (37° C., 5% CO2). At the day of the read out, the eGFP fluorescence was measured using an automated fluorescence microscope at 488 nm (blue laser). Using an in-house LIMS system, inhibition dose response curves for each compound were calculated and the half maximal effective concentration (EC50) was determined. Therefore, the percent inhibition (I) for every test concentration is calculated using the following formula: I=100*(ST-SCC)/(SVC-SCC), ST, SCC and SVC are the amount of eGFP signal in the test compound, cell control and virus control wells, respectively. The EC50 represents the concentration of a compound at which the virus replication is inhibited with 50%, as measured by a 50% reduction of the eGFP fluorescent intensity compared to the virus control. The EC50 is calculated using linear interpolation (Table 1).

[2] = in vitro; conditions: African green monkey
[3] = Dengue virus, DENV2, Vero, 72 h

SMILES	EC50 [1]	CC50 [2]	EC50 [1, 3]
COc1cc(NC(C(=O)N2CCc3ccc(OC(F)(F)F)cc32)c2ccc(F)cc2OCCO)cc(-n2cncn2)c1 (single isomer, unassigned) [Compound 3A]	520 nM	11000 nM	–
COc1cc(NC(C(=O)N2CCc3ccc(C(F)(F)F)cc32)c2ccc(Cl)cc2OCCCC(=O)O)cc(-n2cncn2)c1 (single isomer, unassigned) [Compound 11A]	45 nM	11000 nM	–
COc1cc(NC(C(=O)N2CCc3ccc(C(F)(F)F)cc32)c2ccc(Cl)cc2OCCO)cc(-n2cncn2)c1 (single isomer, unassigned) [Compound 4A]	1200 nM	7800 nM	–
COc1cc(NC(C(=O)N2CCc3ccc(C(F)(F)F)cc32)c2ccc(F)cc2OCCO)cc(-n2cncn2)c1 (racemic) [Compound 1, 2-(4-fluoro-2-(2-hydroxyethoxy)phenyl)-2-((3-methoxy-5-(1H-1,2,4-triazol-1-yl)phenyl)amino)-1-(6-(trifluoromethyl)indolin-1-yl)ethanone]	–	12000 nM	3.1 nM
COc1cc(NC(C(=O)N2CCc3ccc(OC(F)(F)F)cc32)c2ccc(Cl)cc2OCCC(C)(C)C(=O)O)cc(-n2cncn2)c1 (single isomer, unassigned) [Compound 14A]	420 nM	9100 nM	–
COc1cc(NC(C(=O)N2CCc3c(C)cc(OC(F)(F)F)cc32)c2ccc(Cl)cc2OCCO)cc(-n2cncn2)c1 (single isomer, unassigned) [Compound 10A]	63 nM	10000 nM	–
COc1cc(NC(C(=O)N2CCc3cc(F)c(OC(F)(F)F)cc32)c2ccc(Cl)cc2OCCCC(=O)O)cc(-n2cncn2)c1 (single isomer, unassigned) [Compound 15A]	5.3 nM	10000 nM	–
COc1cc(NC(C(=O)N2CCc3cc(OC)c(OC(F)(F)F)cc32)c2ccc(Cl)cc2OCCO)cc(-n2cncn2)c1 (racemic) [Compound 8, 2-(4-chloro-2-(2-hydroxyethoxy)phenyl)-2-((3-methoxy-5-(1H-1,2,4-triazol-1-yl)phenyl)amino)-1-(5-methoxy-6-(trifluoromethoxy)indolin-1-yl)ethanone]	–	9500 nM	2.1 nM
COc1cc(NC(C(=O)N2CCc3c(C)cc(OC(F)(F)F)cc32)c2ccc(Cl)cc2OCCO)cc(-n2cncn2)c1 (racemic) [Compound 10, 2-(4-chloro-2-(2-hydroxyethoxy)phenyl)-2-((3-methoxy-5-(1H-1,2,4-triazol-1-yl)phenyl)amino)-1-(4-methyl-6-(trifluoromethoxy)indolin-1-yl)ethanone]	–	10000 nM	0.35 nM
COc1cc(NC(C(=O)N2CCc3cc(OC)c(C(F)(F)F)cc32)c2ccc(Cl)cc2OCCCC(=O)O)cc(-n2cncn2)c1 (racemic) [Compound 12, 4-(5-chloro-2-(1-((3-methoxy-5-(1H-1,2,4-triazol-1-yl)phenyl)amino)-2-(5-methoxy-6-(trifluoromethyl)indolin-1-yl)-2-oxoethyl)phenoxy)butanoic acid]	–	13000 nM	2.2 nM
COc1cc(NC(C(=O)N2CCc3ccc(OC(F)(F)F)cc32)c2ccc(Cl)cc2OCCCC(=O)O)cc(-n2cncn2)c1 (racemic) [Compound 13, 4-(5-chloro-2-(1-((3-methoxy-5-(1H-1,2,4-triazol-1-yl)phenyl)amino)-2-oxo-2-(6-(trifluoromethoxy)indolin-1-yl)ethyl)phenoxy)butanoic acid]	–	11000 nM	0.23 nM
COc1cc(NC(C(=O)N2CCc3cc(F)c(OC(F)(F)F)cc32)c2ccc(Cl)cc2OCCO)cc(-n2cncn2)c1 (racemic) [Compound 9, 2-(4-chloro-2-(2-hydroxyethoxy)phenyl)-1-(5-fluoro-6-(trifluoromethoxy)indolin-1-yl)-2-((3-methoxy-5-(1H-1,2,4-triazol-1-yl)phenyl)amino)ethanone]	–	3900 nM	1.6 nM

From patent publication US11083707B2, “Substituted indoline derivatives as dengue viral replication inhibitors” (JANSSEN PHARMACEUTICALS, INC., priority 2017, dated 2021)
